Measured values from patent US4535081A, “Antiallergic and antiulcer 1-oxo-1H-thiazolo[3,2-a]pyrimidine-2-carboxamides and intermediates therefor” (Pfizer Inc., priority 1983, dated 1985).
Entries after “also recorded” stand apart in the source; their conditions may differ.

Legend:
[1] = tested on: IgG (hyperimmune antiserum) PCA reaction; assay: Oral activity in PCA test, IgG; type: in vivo; conditions: Rattus norvegicus, 3 mg./kg., read-out: Oral Activity (% of Protection) in the PCA Test, IgG
Protocol: (§1) The antiallergy property of the compounds of this invention is evaluated by the passive cutaneous anaphylaxis (PCA) test (Ovary, J. Immun., 81, 355, 1958). In the PCA test, normal animals are injected intradermally (i.d.) with antibodies contained in serum obtained from actively sensitized animals. The animals are then challenged intravenously with antigen mixed with a dye such as Evans' Blue. The increased capillary permeability caused by the antigen-antibody reaction causes the dye to leak from the site of the antibody injection. The test animals are then asphyxiated and the intensity of the reaction determined by measuring the diameter and intensity of the blue coloration on the inner surface of the animals' skin.
The ability of agents to interfere with PCA reactions is measured in male Charles River Wistar rats, 170-210 g. Reaginic antiserum, rich in IgE antibodies, is prepared according to Petillo et al., Int. Arch. Allergy, 44, 309 (1973). Hyperimmune antiserum rich in IgG antibodies to hen egg albumin is prepared according to Orange et al., J. Exptl. Med., 127, 767 (1968). Forty-eight hours prior to antigen challenge, the reaginic antiserum is injected intradermally (i.d.) into the shaved skin of a normal rat's back; 5 hours before challenge the hyperimmune antisera is similarly injected. At a third site 60 mcg. histamine dihydrochloride and 0.5 mcg. serotonin creatinine sulfate are injected i.d. just prior to antigen challenge as a check for antihistaminic, antiserotonin and unspecific types of blockage; the compounds of the instant invention or saline are then administered i.v. and immediately followed by the challenge of 5 mg. egg albumen and 2.5 mg. Evans' Blue dye in saline. In the case of oral administration Evans' Blue dye and egg albumin are given 5 minutes after administration of the drug. Thirty minutes later the animals are asphyxiated using chloroform and the skin of the back removed and reversed for observation. A score is assigned each injection site equal to the product of the diameter of the site in mm. and a grade of 0.1, 0.5, 1, 2, 3 or 4 proportional to intensity of dye coloration. The scores for a given injection site are summed for each group of five animals and compared to the saline treated controls. The difference is expressed as percent blockage due to the compound employed.
Compounds representative of those of the present invention are tested for antiallergy activity by the above-described procedure and the resulting activities are reported as the degree (%) of protection.

[2] = tested on: passive cutaneous anaphylaxis (PCA); assay: Intravenous activity in PCA test; type: in vivo, rat
Protocol: as §1, with “In” for “The antiallergy property of the compounds of this invention is evaluated by the passive cutaneous anaphylaxis (PCA) test (Ovary, J. Immun., 81, 355, 1958). In”
The ability of agents to interfere with PCA reactions is measured in male Charles River Wistar rats, 170-210 g. Reaginic antiserum, rich in IgE antibodies, is prepared according to Petillo et al., Int. Arch. […] Hyperimmune antiserum rich in IgG antibodies to hen egg albumin is prepared according to Orange et al., J. Exptl. […] Forty-eight hours prior to antigen challenge, the reaginic antiserum is injected intradermally (i.d.) into the shaved skin of a normal rat's back; 5 hours before challenge the hyperimmune antisera is similarly injected. […] The difference is expressed as percent blockage due to the compound employed.

[3] = tested on: isolated guinea pig ileum (acetylcholine); assay: Isolated ileum spasm, acetylcholine; conditions: 10^-8 to 10^-4 M
[4] = tested on: isolated guinea pig ileum (histamine); assay: Isolated ileum spasm, histamine; conditions: 10^-8 to 10^-4 M
isolated rat monocytes = assay: Synthesis and release of SRC in isolated monocytes stimulated by an ionophore; type: cell-based
[5] = tested on: pentagastrin-stimulated acid output; assay: Pentagastrin-stimulated acid output in Heidenhain pouch dogs; type: in vivo, dog; conditions: 5 mg/kg, i.v.
[6] = tested on: urinary volume output and sodium and potassium excretion; assay: Diuretic activity; type: in vivo; conditions: oral
Protocol: When given orally, it caused a dose-related increase in urinary volume output at doses in the range 0.3 to 5 mg/kg. […] These findings indicate that the dose-response range for diuretic activity is considerably higher than that for antiulcer effects and just below that for antiallergy effects (1 to 10 mg/kg).

blood glucose levels = assay: Blood glucose in fasted rats; type: in vivo, rat; conditions: fasted 24 hours; oral 10, 30 or 100 mg/kg
glucose tolerance = assay: Glucose tolerance in rats; type: in vivo, rat; conditions: 10, 30, or 100 mg/kg p.o. with glucose 1 g/kg p.o.
From the text: This effect may be due to a delayed absorption of glucose related to a possible effect on gastric emptying.

serum enzyme levels = assay: Serum enzyme levels, intravenous five days, dogs; type: in vivo, dog; conditions: five days, 1, 3, 10, 3 and 3 mg/kg
bone marrow = assay: Bone marrow chromosomal damage, mice; type: in vivo, mouse; conditions: single oral 40 mg/kg; 6, 12 or 24 hours
Protocol: Single oral doses of III, 40 mg/kg, were administered to groups of mice who were sacrificed 6, 12 or 24 hours later. […] From these findings, it is evident that III has no obvious mutagenic potential.

human lymphocytes = assay: Chromosomal breakage in human lymphocytes in vitro; type: cell-based; conditions: 1000, 100, 10 or 0 μg/ml
Stability = type: physicochemical; conditions: solid state, with standard diluents / inert ingredients, or in solution

Compound: O=C(Nc1nnn[nH]1)c1cnc2sc3c(n2c1=O)CCCC3 [Compound III, N-(5-Tetrazolyl)-1-oxo-1H-cyclohexenothiazolo[3,2-a]pyrimidine-2-carboxamide]
- inhibition in vivo at 3 mg/kg [1]: 45%
- intravenous activity range in the PCA test [2]: 0.03 to 1.0 mg/kg
- potency relative to Intal in the PCA test ([2]; vs Intal): ~26 times
- antagonism of spasm of isolated guinea pig ileum [3]: does not antagonize spasms
- antagonism of spasm of isolated guinea pig ileum [4]: does not antagonize spasms
- synthesis and release of SRC (isolated rat monocytes): is not inhibited
- pentagastrin-stimulated acid output [5]: does not affect pentagastrin-stimulated acid output
- dose range of dose-related increase in urinary volume output [6]: 0.3 to 5 mg/kg
- maximum increase in urinary volume output ([6]; 0.3 to 5 mg/kg): twofold increase in volume output
- sodium and potassium excretion ([6]; 0.3 to 5 mg/kg): an increase in sodium and potassium excretion was observed
- urinary concentrations of sodium and potassium ions ([6]; 0.3 to 5 mg/kg): unchanged
- blood glucose levels (blood glucose levels): did not exhibit any changes in blood glucose levels
- glucose tolerance (glucose tolerance): apparent dose-dependent improvement in glucose tolerance
- serum enzyme levels (serum enzyme levels): remained normal
- chromosomal damage in bone marrow, single dose (bone marrow): did not reveal any chromosomal damage
- drug-induced chromosomal breakage, human lymphocytes (human lymphocytes): failed to reveal any significant drug-induced chromosomal breakage
- stability (Stability): highly stable in a pure solid state, as well as in the presence of standard pharmaceutical diluents and in solution; also recorded: exceptionally good stability
